The values below come from patent US20090253644A1, “Radiosensitizer” (TOYO SUISAN KAISHA, LTD., priority 2004, published 2009).

Several values for one entry are separate records, joined by “and”; a condition that tells them apart may be missing. Equal values may be shown once.

For assay [1], the system named is Human esophageal cancer cells (TE-8 cells). Nature of the assay: Animal experiment: TE-8 tumor-transplanted nude mice, tumor growth delay with X-ray irradiation. As to conditions: Exp. Ex. 1-5: X-ray 8 Gy day 0 and day 4. Format: in vivo. The procedure: Five nude mice (eight weeks old) were randomly assigned to each of four groups. Human esophageal cancer cells (TE-8 cells) were transplanted to each mouse in the same manner as the above Experimental Example 1-1. When tumor volume reached 50 mm^3, α-SQMG C18:0 administration and irradiation treatment were performed. In a single use group of irradiation, each mouse was irradiated with X-ray at a dose of 8 Gy two times on day 0 and day 4. In a single use group of α-SQMG C18:0 administration, the sensitizer was intraperitoneally administered at a concentration of 1 mg/kg once a day at a total of 5 times from day 0 to day 4. In a combined use group, each mouse of the group was treated with both of irradiation and α-SQMG C18:0 administration. In the control group, neither irradiation nor α-SQMG C18:0 administration was performed. Thereafter, tumor volume was measured over a period of 51 days in the same manner as the above Experimental Example 1-1.
In addition, an enhancement ratio (ER) was obtained according to the method described in Experimental Example 1-2. […] For this reason, an enhancement ratio was calculated from the number of days until tumor volume reaches 400 mm^3. As a result, ER was 3.25, and it was shown that synergistic effect was extremely high.

Assay [2] relates to human uterine cervical cancer cells (HeLa cells). Nature of the assay: Animal experiment: HeLa tumor-transplanted nude mice, tumor growth delay with X-ray irradiation. Conditions: Exp. Ex. 1-6: X-ray 8 Gy day 0 and day 4. The format is in vivo. On the procedure: A human cancer-transplanted mouse was prepared in the same manner as in Experimental Example 1-5 except that human uterine cervical cancer cells (HeLa cells) were transplanted into a nude mouse. When tumor volume reached 100 mm^3, α-SQMG C18:0 administration and irradiation treatment were performed. In a single use group of irradiation, each mouse was irradiated with X-ray at a dose of 8 Gy two times on day 0 and day 4. In a single use group of α-SQMG C18:0 administration, α-SQMG C18:0 was intraperitoneally administered at a concentration of 1 mg/kg at a total of 10 times consisting of two courses of 5 times, that is, once a day from day 0 to day 4 and once a day from day 12 to day 16. In the combined use group, each mouse of the group was treated with both of irradiation and α-SQMG C18:0 administration. In the control group, neither irradiation nor α-SQMG C18:0 administration was performed. Thereafter, tumor volume was measured over a period of 35 days in the same manner as the above Experimental Example 1-1.

The subject of assay [3] is Bovine aortic endothelial cells (BAEC). Nature of the assay: Colony assay on vascular endothelial cells with 60Co γ-ray irradiation. The format is cell-based. Set-up: key to actually measured SF value of combined use group / actually measured SF value of combined use: SF = colonies/seeded cells×(PE/100); PE = control colony formation rate. As to conditions: for SF (cell surviving fraction), administration alone: 24 hours, no irradiation. The procedure:
Bovine aortic endothelial cells (BAEC) were appropriately seeded on a petri dish, and adhesion of cells was confirmed after 2 to 3 hours. In a group of α-SQMG C18:0 administration alone and a combined use group, the cells were treated with 10 μM of α-SQMG C18:0. After 24 hours, a medium was exchanged in all test groups, and 4 Gy of ^60Co γ-ray was irradiated in a group of irradiation alone and a combined use group. After the cells were cultured in a CO2 incubator at 37° C. for 10 to 12 days, formed colonies were fixed with formalin, and stained with a crystal violet staining solution. On each plate, the number of colonies consisting of about 50 or more cells was counted, and cell surviving fraction (SF) was obtained according to the following equation.
SF (cell surviving fraction)=number of colonies/number of seeded cells×(PE/100)
Herein, PE (plating efficiency) represents a colony formation rate (%) on a plate of a control.
An experiment was performed three times, and an average of them was calculated.
The same experiment as that of Experimental Example 2-1 was performed except that a radiation dose 6 Gy was irradiated in place of 4 Gy used in Experimental Example 2-1. […]

Assay [4] has as its system SAS cells. Nature of the assay: Colony assay on SAS cells. The format is cell-based, human. As to conditions: same colony assay as Exp. Ex. 2-1 and 2-2.
Assay [5] concerns angiogenesis (tube formation). Nature of the assay: Assay by angiogenesis kit (KZ-1000), tube formation. The format is cell-based. The procedure:
The anti-angiogenic effect obtained by combined use of 20 μM of α-SQMG C18:0 administration and 4 Gy of ^60Co γ-ray irradiation was investigated using an angiogenesis kit (“angiogenesis kit KZ-1000” of Kurabo Industries Ltd.).
A drug named Suramin is the known substance as a drug suppressing angiogenesis, and it is known that its action is to inhibit a growth factor receptor of a vascular endothelial cell. In the present Example, Suramin was used as a positive control at 50 μM.
As described above, the “theoretical additive point of combined use” is calculated by multiplication, and the theoretical value is compared with an actually measured value.

The mark [6] stands for this setting: 4 Gy 60Co γ-ray + α-SQMG C18:0 20 μM or Suramin 50 μM.

In the case of `CCCCCCCCCCCCCCCCCC(=O)OCC(O)CO[C@H]1O[C@H](CS(=O)(=O)[O-])[C@@H](O)[C@H](O)[C@H]1O.[Na+]` (stereo partly drawn) [α-SQMG C18:0, 3-O-(6-deoxy-6-sulfo-α-D-glucopyranosyl)-1-O-stearoyl-glycerol sodium salt], the “enhancement ratio (ER)” value in assay [1] (1 mg/kg i.p. day 0 to 4, calculated from days until tumor volume reaches 400 mm^3) was 3.25; in assay [2] (1 mg/kg i.p. day 0 to 4 and day 12 to 16, tumor volume 500 mm^3), 2.71. Moreover, the “anti-tumor effect (tumor volume), combined use with irradiation” value in assay [1] (1 mg/kg i.p. once a day day 0 to 4) was “anti-tumor effect far exceeding the anti-tumor effect attained by irradiation”; in assay [2] (1 mg/kg i.p. once a day day 0 to 4 and day 12 to 16) it was “anti-tumor effect far exceeding the anti-tumor effect attained by irradiation”. In addition, the “actually measured SF value of combined use” value in assay [3] (5 μM + 2 Gy 60Co γ-ray) is given as 0.1370; in assay [3] (10 μM + 2 Gy 60Co γ-ray), 0.0644. Besides, the “theoretical additive point of combined use (SF)” value in assay [3] (5 μM + 2 Gy 60Co γ-ray) is 0.6012; in assay [3] (10 μM + 2 Gy 60Co γ-ray), 0.5620; in assay [3] (10 μM + 4 Gy 60Co γ-ray), 0.0974; in assay [3] (10 μM + 6 Gy 60Co γ-ray) it was 0.0505. Moreover, the “SF (cell surviving fraction), administration alone” value in assay [3] (5 μM) was 1.0094; in assay [3] (10 μM, sodium salt) it was 0.616 and 0.9433. Besides, the “actually measured SF value of combined use group” value is 0.0640 in assay [3] (10 μM + 4 Gy 60Co γ-ray) and 0.0180 in assay [3] (10 μM + 6 Gy 60Co γ-ray). Moreover, the “synergistic effect of combined use with radiation on suppression of proliferation of vascular endothelial cells” value in assay [3] (10 μM, 4 Gy and/or 6 Gy) is on record as “considerably great synergistic effect”. Moreover, the “cell proliferation suppressing effect, treatment alone” value in assay [3] (Exp. Ex. 2-5: 0 to 25 μM, 0 Gy) was “cell proliferation suppressing effect is not obtained”. Besides, the “effect of irradiation on suppression of cell proliferation, combined use” value in assay [3] (Exp. Ex. 2-5: 0 to 25 μM, 2 to 8 Gy 60Co γ-ray) was “increased”. For the same molecule, the “cell proliferation suppressing effect on SAS cells” value in assay [4] was “did not exert a cell proliferation suppressing effect”. For the same molecule, in assay [5] (setting [6]), the “tube formation rate, Actually measured value, combined use” value is reported as 0.0762. In addition, the “tube formation rate, Theoretical value (theoretical additive point of combined use)” value in assay [5] (setting [6]) is given as 0.467. Further, the “tube formation rate, use alone” value in assay [5] (α-SQMG C18:0 20 μM, Suramin 50 μM, no irradiation) is listed as 0.7229.
